One series concerns the target PDGFRB (Homo sapiens, UniProt P09619). The series can be described thus: Z'-Lyte kinase panel, PDGFRB. The series is classed as biochemical. The settings on record: 1.5 hrs incubation. On the procedure: (§1) Kinase activity assays were performed using the FRET-based Z′-Lyte assay according to the manufacturer’s instructions. The compounds were incubated with the kinase reaction mixture for 1.5 hrs before measurement. The data are means from two independent experiments and the variations are below 20%.

Another series deals with IGF1R (Homo sapiens, UniProt P08069). The series can be described thus: FRET-based Z'-Lyte kinase assay, IGF1R. The format is biochemical. The settings on record: AV ± SD; 1.5 h incubation. On the procedure:
The kinase activity assay was performed and optimized according to the instructions of Z’‐LYTE™ kinase assay kits from the manufacturer (PV4879, Life, America). In our experiments, 10 concentration gradients from 0.01 nmol/L to 1.0 μmol/L were used for all the compounds.

The next series relates to H1975 xenograft. The series can be described thus: H1975 tumor xenograft in CB17-SCID mice. Conditions: 30 mg/kg, po, qd. The series is classed as in vivo. As to the method: Male CB17‐SCID mice were purchased from Vital River Laboratory Animal Technology Inc. (Beijing, China). H1975 cells (5 × 10^6/mouse) were injected subcutaneously in the right flanks of mice. […] All the compounds were suspended in 0.5% CMC‐Na aqueous solution. The tumor volume and body weight of animals were measured once every 2 days. Tumor volume was calculated as the L × W ^2/2 (L and W are the length and width of the tumor, respectively). All animal experiments were approved by the Institutional Animal Use and Care Committee of Guangzhou Institute of Biomedicine and Health, Chinese Academy of Science.

The subject of another series is H1975 cells. Description: Cell cycle analysis by flow cytometry (propidium iodide). The format is cell-based, human. As to the method:
The effect of YL143 to induce cell cycle arrest and apoptosis in H1975 cells was investigated by flow cytometry analysis. […] Treatment with 300 nmol/L of YL143 for 48 h led to 82.11% G0/G1 phase arrest and 34.1% apoptosis. […] (Fig. 3C).
Figure 3 YL143 induces G0/G1 cell cycle arrest and apoptosis in H1975 cells. (A) YL143 induces G0/G1 cell cycle arrest in H1975 cells H1975 cells were treated with 3, 30 or 300 nmol/L for 48 h before DNA labeling by propidium iodide and cell cycle analysis by flow cytometry. (B) YL143 induces apoptosis in H1975 cells. H1975 cells were treated with 3, 30 or 300 nmol/L for 48 h before DNA labeling by Annexin V and 7‐AAD and cell apoptosis analysis by flow cytometry. (C) The effect of YL143 on the expression of CDK4, Cyclin D2, CDK2, Cyclin E, Caspase‐9 and Caspase‐3 was tested by western blotting. The cells were treated with YL143 from 3 to 300 nmol/L for 48 h. Representative results are shown and similar results were obtained in three other independent trials. […]
For orientation: In flow cytometry, cells or beads pass a laser one at a time.

The next series deals with ZAK (Homo sapiens, UniProt Q9NYL2). The series can be described thus: Z'-Lyte kinase panel, ZAK. The series is classed as biochemical. The settings on record: 1.5 hrs incubation. On the procedure:
as §1

pIC50: −log10 of the molar value. Entries after “also recorded” stand apart in the source; their conditions may differ.

What is called pIC50 is the negative decadic logarithm of the IC50, by convention in mol/L. A low value points to a high IC50.

IGF1R, sequence (P08069 31-1367, species assumed): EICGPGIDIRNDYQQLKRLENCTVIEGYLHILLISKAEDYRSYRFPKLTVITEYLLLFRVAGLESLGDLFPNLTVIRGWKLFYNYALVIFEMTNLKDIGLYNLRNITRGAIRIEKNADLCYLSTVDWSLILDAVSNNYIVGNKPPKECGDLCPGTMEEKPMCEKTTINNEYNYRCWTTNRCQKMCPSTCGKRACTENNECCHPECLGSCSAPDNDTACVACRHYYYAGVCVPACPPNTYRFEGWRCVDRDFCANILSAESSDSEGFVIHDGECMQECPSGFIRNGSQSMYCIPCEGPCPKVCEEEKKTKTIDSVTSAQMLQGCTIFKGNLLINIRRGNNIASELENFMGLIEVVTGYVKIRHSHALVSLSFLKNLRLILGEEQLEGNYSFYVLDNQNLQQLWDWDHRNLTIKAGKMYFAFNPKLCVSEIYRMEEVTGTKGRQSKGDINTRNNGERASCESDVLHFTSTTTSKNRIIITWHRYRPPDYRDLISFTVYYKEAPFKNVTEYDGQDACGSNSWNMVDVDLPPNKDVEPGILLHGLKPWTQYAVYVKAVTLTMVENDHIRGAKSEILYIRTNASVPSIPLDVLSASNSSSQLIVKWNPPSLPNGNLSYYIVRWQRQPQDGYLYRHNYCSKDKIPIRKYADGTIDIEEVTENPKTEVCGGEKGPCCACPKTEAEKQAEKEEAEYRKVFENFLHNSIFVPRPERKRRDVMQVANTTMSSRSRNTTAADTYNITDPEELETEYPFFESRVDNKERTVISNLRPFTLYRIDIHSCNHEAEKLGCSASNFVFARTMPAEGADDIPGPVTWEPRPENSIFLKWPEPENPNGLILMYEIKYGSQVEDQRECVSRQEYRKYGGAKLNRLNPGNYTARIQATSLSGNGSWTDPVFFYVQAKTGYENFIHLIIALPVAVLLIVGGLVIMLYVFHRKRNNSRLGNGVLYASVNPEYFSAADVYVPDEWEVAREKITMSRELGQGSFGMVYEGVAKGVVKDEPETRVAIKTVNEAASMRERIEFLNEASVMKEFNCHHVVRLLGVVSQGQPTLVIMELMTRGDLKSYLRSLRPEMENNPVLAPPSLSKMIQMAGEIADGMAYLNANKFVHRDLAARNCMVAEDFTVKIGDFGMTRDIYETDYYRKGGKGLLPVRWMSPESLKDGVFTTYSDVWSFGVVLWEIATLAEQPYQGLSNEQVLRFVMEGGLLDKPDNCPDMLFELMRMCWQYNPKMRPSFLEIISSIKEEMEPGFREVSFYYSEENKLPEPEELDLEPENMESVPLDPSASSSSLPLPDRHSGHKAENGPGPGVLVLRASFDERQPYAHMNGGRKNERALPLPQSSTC
ZAK, sequence (Q9NYL2 whole entry, species assumed): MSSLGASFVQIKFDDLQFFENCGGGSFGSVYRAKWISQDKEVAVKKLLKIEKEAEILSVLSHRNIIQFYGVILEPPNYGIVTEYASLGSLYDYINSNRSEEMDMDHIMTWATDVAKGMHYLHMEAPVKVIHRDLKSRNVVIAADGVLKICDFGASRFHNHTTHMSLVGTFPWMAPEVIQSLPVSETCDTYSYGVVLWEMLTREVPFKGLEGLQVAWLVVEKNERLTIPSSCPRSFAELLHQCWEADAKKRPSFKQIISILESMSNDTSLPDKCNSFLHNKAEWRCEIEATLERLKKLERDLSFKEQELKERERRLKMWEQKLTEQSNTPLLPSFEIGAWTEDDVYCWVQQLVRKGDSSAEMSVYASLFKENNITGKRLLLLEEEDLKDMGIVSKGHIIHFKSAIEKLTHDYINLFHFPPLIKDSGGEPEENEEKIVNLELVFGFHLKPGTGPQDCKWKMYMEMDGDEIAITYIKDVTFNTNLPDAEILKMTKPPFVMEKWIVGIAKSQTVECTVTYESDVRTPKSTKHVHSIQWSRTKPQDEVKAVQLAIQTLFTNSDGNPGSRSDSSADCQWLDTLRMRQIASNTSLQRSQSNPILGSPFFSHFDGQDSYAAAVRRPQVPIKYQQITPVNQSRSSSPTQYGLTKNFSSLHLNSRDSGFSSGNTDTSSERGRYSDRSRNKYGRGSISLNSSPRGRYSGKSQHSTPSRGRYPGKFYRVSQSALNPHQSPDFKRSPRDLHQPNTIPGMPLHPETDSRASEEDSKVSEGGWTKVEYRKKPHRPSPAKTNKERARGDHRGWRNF
PDGFRB, sequence (P09619 33-1106, species assumed): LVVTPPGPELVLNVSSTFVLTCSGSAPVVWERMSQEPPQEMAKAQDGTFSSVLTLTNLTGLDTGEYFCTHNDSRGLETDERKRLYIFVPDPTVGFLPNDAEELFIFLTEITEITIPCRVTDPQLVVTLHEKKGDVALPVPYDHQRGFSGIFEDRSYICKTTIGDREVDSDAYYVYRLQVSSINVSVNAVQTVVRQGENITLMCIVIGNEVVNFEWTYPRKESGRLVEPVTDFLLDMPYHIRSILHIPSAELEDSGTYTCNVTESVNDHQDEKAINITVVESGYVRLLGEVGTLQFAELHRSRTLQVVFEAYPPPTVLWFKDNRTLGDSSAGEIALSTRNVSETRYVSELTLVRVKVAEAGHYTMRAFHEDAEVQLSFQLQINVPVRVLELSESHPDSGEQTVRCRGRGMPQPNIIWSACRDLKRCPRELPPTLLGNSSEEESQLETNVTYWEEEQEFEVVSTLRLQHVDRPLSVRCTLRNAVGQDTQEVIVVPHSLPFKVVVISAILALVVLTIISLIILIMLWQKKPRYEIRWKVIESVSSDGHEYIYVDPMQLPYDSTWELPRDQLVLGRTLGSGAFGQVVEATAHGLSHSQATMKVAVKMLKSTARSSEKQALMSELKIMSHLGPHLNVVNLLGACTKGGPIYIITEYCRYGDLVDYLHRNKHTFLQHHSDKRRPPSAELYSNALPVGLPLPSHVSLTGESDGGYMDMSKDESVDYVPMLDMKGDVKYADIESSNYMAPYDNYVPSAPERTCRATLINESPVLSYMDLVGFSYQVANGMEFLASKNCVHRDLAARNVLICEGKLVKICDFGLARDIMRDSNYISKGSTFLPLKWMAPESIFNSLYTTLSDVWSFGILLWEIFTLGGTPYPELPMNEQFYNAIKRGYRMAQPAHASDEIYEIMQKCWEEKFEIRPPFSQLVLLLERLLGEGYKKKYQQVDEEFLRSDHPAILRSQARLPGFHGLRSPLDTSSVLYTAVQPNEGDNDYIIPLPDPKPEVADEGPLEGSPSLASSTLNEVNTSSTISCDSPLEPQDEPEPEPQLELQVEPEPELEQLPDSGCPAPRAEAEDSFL

For `C=CC(=O)Nc1cc(C)cc(-n2c(=O)cc(C)c3cnc(Nc4ccc(N5CCN(C)CC5)cc4OC)nc32)c1` [YL143, N‐(3‐(2‐((2‐Methoxy‐4‐(4‐methylpiperazin‐1‐yl)phenyl)amino)‐5‐methyl‐7‐oxopyrido [2,3‐d]pyrimidin‐8(7H)‐yl)‐5‐methylphenyl)acrylamide], the pIC50 on PDGFRB is below 5.00. Moreover, the pIC50 against IGF1R is below 6.00. Besides, in the series with H1975 xenograft (18 days), the “TUNEL stain of the tumor tissue” value was “induced apoptosis”; the antitumor efficacy entry is “promising antitumor efficacy; also recorded: comparable in vivo antitumor effect to that of CO1686”; the “tolerability (mortality, body weight)” value is given as “well tolerated; also recorded: without significantly toxic signs”. Also, the “hyperglycemia side effect (blood glucose)” value in the series with H1975 xenograft (day 7 and 14, compared with CO1686) is on record as “weaker hyperglycemia side effect”. In addition, the G0/G1 phase fraction with H1975 cells (300 nmol/L, 48 h) was 82.11%. The “cell cycle arrest and apoptosis” value in the series with H1975 cells (H1975 cells, 30 nmol/L) is “induces G0/G1 phase arrest and apoptosis”. Also, the pIC50 on ZAK is below 5.00.

The record behind these values is publication PMC5911580, “YL143, a novel mutant selective irreversible EGFR inhibitor, overcomes EGFR^L858R, T790M‐mutant resistance in vitro and in vivo” (Cancer Medicine, 2018).
